In article PMC12562324, “Surfactin Structural Variants Differentially Modulate Plant Immune Responses” (Biomolecules, 2025):

Assays:
[1] = system: Arabidopsis thaliana roots; test: Intracellular NO (RNS burst) in roots, DAF-DA probe; format: cell-based; conditions: for NO accumulation in roots vs mock: 10 µM, DAF-DA fluorescence fold change at 20 min vs mock (DMSO 0.1%), n = 12 from three independent experiments, Figure 3A,B
Protocol: (§1) For the detection of intracellular NO, roots were processed as described above and 200 µL sterile water was replaced by 200 µL 5 μM DAF-DA in a buffered solution (10 mM Tris/HCl, pH = 7.4). Roots were incubated at room temperature for 1 h in the absence of light and then washed 3 times with Tris/HCl (10 mM, pH = 7.4). The fluorescence emitted by DAF-DA was detected by excitation at 495 nm and emission at 515 nm. Experiments where NO was measured after pretreatment with the calcium channel blocker or calcium chelator included an additional step where LaCl3 (10 mM; Merck Chemicals SA, Hoeilaart, Belgium) or EGTA (1 mM; Merck Chemicals SA, Hoeilaart, Belgium) was added three minutes before treatments. Data were processed as described above for ROS. For NO measurements in protoplasts, the suspension was incubated in the same conditions before being distributed (50 µL) in microplate wells and treated with the CLPs at a 10 µM final concentration or with 0.1% DMSO as a mock.

MYB72 = test: Coumarin pathway reporter line pMYB72:GFP-GUS; format: cell-based, Arabidopsis thaliana; conditions: 10 µM Srf, 20 min post treatment, vs mock; n = 9 from three independent experiments; p < 0.05; Figure 6A
Protocol: (§2) Seedlings of the Arabidopsis thaliana reporter lines pMYB72:GFP-GUS and pBGLU42:GFP-GUS were germinated and cultivated for seven days under the aforementioned conditions. Uniform plantlets were then transferred to 96-well optical bottom black microplates (Greiner 96 µClear, Thermo Fisher Scientific, Hampton, VA, USA). Each well contained 150 µL of the hydroponic solution. Following transfer, the microplates were sealed and incubated in a growth chamber under controlled conditions (22 °C with a 12 h photoperiod). On the fifth day of this incubation, the plates were treated by adding 150 µL of either the CLP solution or a mock control to each well. Fluorescence measurements were subsequently acquired using a Spark microplate reader and configured with an excitation wavelength of 485 nm and an emission wavelength of 530 nm. Data were collected with nine measurement points acquired per well to ensure robustness.

[2] = system: Arabidopsis thaliana nia1nia2 double mutant roots; test: Srf-induced NO in nitrate reductase double mutant roots; format: cell-based; conditions: fluorescence 40 min after Srf treatment, compared with Col-0; n = 12 from three independent experiments; Figure 3D
Protocol: as §1

Botrytis cinerea = test: ISR against B. cinerea in myb72-2 knockout mutant; format: in vivo; conditions: 10 µM Srf or mock (0.1% EtOH) before B. cinerea infection; n = 30 from two independent experiments; Figure 6C
Protocol: Plants were grown for 4 weeks in hydroponic conditions in Araponics systems containing a nutrient solution (0.25% (v/v) FLORAMICRO®, 0.25% (v/v) FLORABLOOM®, 0.25% (v/v) FLORAGRO®; General Hydroponics®, in volume ratio 1:1:1, as recommended by the manufacturer), with a photoperiod of 12 h and a temperature of 22 °C. Plants were then transferred into 10 mL vials filled with fresh nutrient solution and treated at the root level with CLPs or ethanol (mock treatment) to obtain final concentrations of 10 µM and 0.1%, respectively. After incubation for 24 h, plants were inoculated with Botrytis cinerea (Helotiales: Sclerotiniaceae) as the conidia solution. Spores were collected from B. cinerea grown on PDA plates for 4 weeks using a solution composed of 1.75 g/L KH2PO4; 0.74 g/L MgSO4; 4 g/L glucose, and 0.02% (v/v) Tween 20. After spore collection, the concentration was adjusted to 5 × 10^5 spores per mL, and spores were incubated at 30 °C for eight hours. Inoculation was conducted by inoculating a drop of 3 µL of conidia solution onto seven leaves per plant and fifteen plants per treatment. The number of spreading lesions was evaluated 96 h post infection.

root tissues = conditions: previous results; cited from earlier work
Excerpt: Early immune responses associated with PTI include the rapid accumulation of extracellular ROS in the apoplast, generated mainly by the plasma membrane-located NADPH oxidase RBOHD or by cell wall peroxidases. Cytoplasmic hydrogen peroxide ([ROS]intra) production also emerges as an early defense response and could originate from various organelles, as reported for ETI, or in response to abiotic stresses or other small microbial compounds [9, 36, 37].

BGLU42 = test: Coumarin pathway reporter line pBGLU42:GFP-GUS; format: cell-based, Arabidopsis thaliana; conditions: 10 µM Srf, 20 min post treatment, vs mock; n = 12 from three independent experiments; p < 0.05; Figure 6B
Protocol: as §2

| Substance | NO accumulation in roots vs mock [1] | Srf-induced RNS (NO burst) in roots after pretreatment with Ca2+ chelator EGTA ([1]; EGTA 1 mM added three minutes before treatment, over 50 min, n = 8 from two independent experiments, Figure 4D) | Srf-induced RNS (NO burst) in roots after pretreatment with Ca2+ channel blocker LaCl3 ([1]; LaCl3 10 mM added three minutes before treatment, over 50 min, n = 8 from two independent experiments, Figure 4C) | MYB72 expression in roots of reporter line (GFP fluorescence) (MYB72) | NO production in nia1nia2 double mutant roots [2] | ISR elicitor potential in myb72-2 knockout mutant compared to wild-type Col-0 (Botrytis cinerea) | Burst in extracellular ROS in root tissues (root tissues) | [ROS]intra production in root tissues (root tissues) | BGLU42 expression in roots of reporter line (GFP fluorescence) (BGLU42) |
| --- | --- | --- | --- | --- | --- | --- | --- | --- | --- |
| pumilacidin | no impact |  |  |  |  |  |  |  |  |
| surfactin [Srf] | fast accumulation of NO | abolished | abolished | significant upregulation | fully conserved induction of NO production | fully conserved | not a burst in extracellular ROS | triggers [ROS]intra production | significant upregulation |
